Data as given in paper PMC6424229, “^68Ga-FAPI PET/CT: Biodistribution and Preliminary Dosimetry Estimate of 2 DOTA-Containing FAP-Targeting Agents in Patients with Various Cancers” (Journal of Nuclear Medicine, 2019).
Several values for one entry are separate records, joined by “and”; a condition that tells them apart may be missing. Identical values can stand only once. Like-named read-outs stand apart in the source and are kept apart here.

What was measured:
[1] = Radiation dosimetry estimate from serial PET/CT (QDOSE; OLINDA 1.1, IDAC-Dose 1.0/2.1); format: in vivo, patients; details: for Radiation exposure (effective dose) per 100 MBq: PET; for Radiation exposure (effective dose) per 100 MBq / Effective dose / Dosimetry estimate (OLINDA), Red marrow / Dosimetry estimate (OLINDA), Adrenals / Dosimetry estimate (OLINDA), Brain / Dosimetry estimate (OLINDA), Breasts / Dosimetry estimate (OLINDA), Gallbladder wall / Dosimetry estimate (OLINDA), Heart wall / Dosimetry estimate (OLINDA), Kidneys / Dosimetry estimate (OLINDA), Liver / Dosimetry estimate (OLINDA), Lower large intestine wall / Dosimetry estimate (OLINDA), Lungs / Dosimetry estimate (OLINDA), Muscle / Dosimetry estimate (OLINDA), Osteogenic cells / Dosimetry estimate (OLINDA), Ovaries / Dosimetry estimate (OLINDA), Pancreas / Dosimetry estimate (OLINDA), Skin / Dosimetry estimate (OLINDA), Small intestine / Dosimetry estimate (OLINDA), Spleen / Dosimetry estimate (OLINDA), Stomach wall / Dosimetry estimate (OLINDA), Testes / Dosimetry estimate (OLINDA), Thymus / Dosimetry estimate (OLINDA), Thyroid / Dosimetry estimate (OLINDA), Upper large intestine wall / Dosimetry estimate (OLINDA), Urinary bladder wall / Dosimetry estimate (OLINDA), Uterus / Dosimetry estimate (OLINDA), Total body: one patient per tracer; for Equivalent dose / radiation dose of one examination: examination with 200 MBq of 68Ga; for Dosimetry estimate (OLINDA), Red marrow: approximated from PET volume of interest in a lumbar vertebra; for Dosimetry estimate (OLINDA), Red marrow / Dosimetry estimate (OLINDA), Adrenals / Dosimetry estimate (OLINDA), Brain / Dosimetry estimate (OLINDA), Breasts / Dosimetry estimate (OLINDA), Gallbladder wall / Dosimetry estimate (OLINDA), Heart wall / Dosimetry estimate (OLINDA), Kidneys / Dosimetry estimate (OLINDA), Liver / Dosimetry estimate (OLINDA), Lower large intestine wall / Dosimetry estimate (OLINDA), Lungs / Dosimetry estimate (OLINDA), Muscle / Dosimetry estimate (OLINDA), Osteogenic cells / Dosimetry estimate (OLINDA), Ovaries / Dosimetry estimate (OLINDA), Pancreas / Dosimetry estimate (OLINDA), Skin / Dosimetry estimate (OLINDA), Small intestine / Dosimetry estimate (OLINDA), Spleen / Dosimetry estimate (OLINDA), Stomach wall / Dosimetry estimate (OLINDA), Testes / Dosimetry estimate (OLINDA), Thymus / Dosimetry estimate (OLINDA), Thyroid / Dosimetry estimate (OLINDA), Upper large intestine wall / Dosimetry estimate (OLINDA), Urinary bladder wall / Dosimetry estimate (OLINDA), Uterus / Dosimetry estimate (OLINDA), Total body: unit not given; for Dosimetry estimate (OLINDA), Adrenals / Dosimetry estimate (OLINDA), Brain / Dosimetry estimate (OLINDA), Breasts / Dosimetry estimate (OLINDA), Gallbladder wall / Dosimetry estimate (OLINDA), Heart wall / Dosimetry estimate (OLINDA), Kidneys / Dosimetry estimate (OLINDA), Liver / Dosimetry estimate (OLINDA), Lower large intestine wall / Dosimetry estimate (OLINDA), Lungs / Dosimetry estimate (OLINDA), Muscle / Dosimetry estimate (OLINDA), Osteogenic cells / Dosimetry estimate (OLINDA), Ovaries / Dosimetry estimate (OLINDA), Pancreas / Dosimetry estimate (OLINDA), Skin / Dosimetry estimate (OLINDA), Small intestine / Dosimetry estimate (OLINDA), Spleen / Dosimetry estimate (OLINDA), Stomach wall / Dosimetry estimate (OLINDA), Testes / Dosimetry estimate (OLINDA), Thymus / Dosimetry estimate (OLINDA), Thyroid / Dosimetry estimate (OLINDA), Upper large intestine wall / Dosimetry estimate (OLINDA), Urinary bladder wall / Dosimetry estimate (OLINDA), Uterus: organ dose
Method: (§1) To approximate the dosimetry, imaging was performed 10 min, 1 h, and 3 h after injection of 306 MBq of ^68Ga-FAPI-2 in one patient and 258 MBq of ^68Ga-FAPI-4 in another patient.
The dosimetry analysis was performed using the QDOSE dosimetry software suite (ABX-CRO). Kidneys, liver, spleen, urinary bladder content, red marrow, heart content, and remainder of body were included as source organs. Because of blood sampling failure due to poor vein conditions, the red marrow dose was approximated using the activity segmented with volume-of-interest technique in the PET scans. The non–tumor-affected lumbar vertebrae 5 (^68Ga-FAPI-2) and 4 (^68Ga-FAPI-4) were assumed to contain 2.46% of the total red marrow ([6]). Using QDOSE, all CT images were coregistered using an automatic deformable coregistration. PET images were coupled to the CT images of the corresponding imaging session. The PET images were transformed according to the transformation matrix of the coupled CT. The volumes of interest of all segmented source organs were drawn in the examination that had the best organ delineation and then were copied onto all other time points to calculate the time–activity curves. Monoexponential curve fitting was then applied to all organ time–activity curves. The cumulative activity Ã between time 0 and the first measured time point was calculated assuming a linear increase from 0 to the first measured activity. The Ã between the first measured time point and the last measured time point was integrated numerically using trapezoidal approximation. The Ã from the last measured time point to infinity was integrated using the fitted function. The total-body Ã was based on the injected activity and the calculated effective half-life in a total-field-of-view volume of interest, assuming that the limbs behave similar to the torso. This approach was chosen because some parts of the body were not in the field of view of the PET/CT device. The Ã values of total body and red marrow were added as organs into QDOSE. The Ã of the remainder of the body was then automatically calculated by subtracting all source-organ Ã values from the total-body Ã. All source-organ residence times were calculated by dividing the Ã by the injected activity. Absorbed and effective dose calculations were performed using the International Commission on Radiological Protection (ICRP)–endorsed IDAC-Dose 2.1 and IDAC-Dose 1.0 ([7]), which are integrated in QDOSE. In addition, the residence times of all included source organs and remainder of body were exported as an OLINDA case file for dose calculation in OLINDA 1.1 ([8]). Both IDAC-Dose 1.0 and OLINDA 1.1 are based on the Cristy–Eckerman stylized phantom series ([9]). IDAC-Dose 2.1 is based on the ICRP adult reference computational phantoms ([10]) and the ICRP-specific absorbed fractions ([11]). Organ masses were not adapted to individual subject organ masses.

tumor lesions [2] = experiment: Serial PET/CT 10 min, 1 h and 3 h after injection (tracer kinetics, tumor retention); format: in vivo, patients; details: mean; one patient with metastasized breast cancer per tracer
Method: as §1

tumor lesions [3] = experiment: PET/CT tumor uptake (SUVmax) 1 h after injection; details: not statistically significant; for Uptake by tumors, average SUVmax: interindividual comparison, 25 patients per tracer
[4] = PET/CT normal-organ / background uptake (SUVmax) 1 h after injection; details: for Unspecific uptake in locations of wound healing after surgical intervention, average SUVmax: interindividual comparison, 25 patients per tracer, not statistically significant
[5] = literature value, cited from earlier work
[6] = intraindividual comparison of 6 patients

| Structure (SMILES) | Radiation exposure (effective dose) per 100 MBq [1] | Effective dose ([1]; calculated with IDAC1/ICRP60) | Effective dose ([1]; calculated with IDAC2/ICRP103) | Effective dose ([1]; calculated with OLINDA) | Equivalent dose / radiation dose of one examination [1] | Dosimetry estimate (OLINDA), Red marrow [1] | Dosimetry estimate (OLINDA), Adrenals [1] | Dosimetry estimate (OLINDA), Brain [1] | Dosimetry estimate (OLINDA), Breasts [1] | Dosimetry estimate (OLINDA), Gallbladder wall [1] | Dosimetry estimate (OLINDA), Heart wall [1] | Dosimetry estimate (OLINDA), Kidneys [1] | Dosimetry estimate (OLINDA), Liver [1] | Dosimetry estimate (OLINDA), Lower large intestine wall [1] | Dosimetry estimate (OLINDA), Lungs [1] | Dosimetry estimate (OLINDA), Muscle [1] | Dosimetry estimate (OLINDA), Osteogenic cells [1] | Dosimetry estimate (OLINDA), Ovaries [1] | Dosimetry estimate (OLINDA), Pancreas [1] | Dosimetry estimate (OLINDA), Skin [1] | further results |
| --- | --- | --- | --- | --- | --- | --- | --- | --- | --- | --- | --- | --- | --- | --- | --- | --- | --- | --- | --- | --- | --- |
| N#C[C@@H]1CCCN1C(=O)CNC(=O)c1ccnc2ccc(OCCCN3CCN(C(=O)CN4CCN(CC(=O)O)CCN(CC(=O)O)CCN(CC(=O)O)CC4)CC3)cc12 [^68Ga-FAPI-2, metal not drawn] | 1.4 mSv/100 MBq and 1.4–1.8 mSv/100 MBq | 1.82E−2 mSv/MBq | 1.79E−2 mSv/MBq | 1.80E−2 mSv/MBq and 1.80E−02 mSv/MBq | 3–4 mSv | 3.28E−02 | 1.23E−02 | 9.54E−03 | 9.58E−03 | 1.19E−02 | 4.73E−02 | 4.45E−02 | 1.51E−02 | 1.23E−02 | 1.09E−02 | 1.04E−02 | 2.94E−02 | 1.24E−02 | 1.23E−02 | 9.01E−03 | Dosimetry estimate (OLINDA), Small intestine [1]: 1.19E−02; Dosimetry estimate (OLINDA), Spleen [1]: 2.62E−02; Dosimetry estimate (OLINDA), Stomach wall [1]: 1.13E−02; Dosimetry estimate (OLINDA), Testes [1]: 1.04E−02; Dosimetry estimate (OLINDA), Thymus [1]: 1.15E−02; Dosimetry estimate (OLINDA), Thyroid [1]: 1.03E−02; Dosimetry estimate (OLINDA), Upper large intestine wall [1]: 1.17E−02; Dosimetry estimate (OLINDA), Urinary bladder wall [1]: 8.89E−02; Dosimetry estimate (OLINDA), Uterus [1]: 1.33E−02; Dosimetry estimate (OLINDA), Total body [1]: 1.19E−02; Decline of tumor uptake (washout) from 1 h to 3 h after injection (tumor lesions [2]): 75%; Uptake by tumors, average SUVmax (tumor lesions [3]): 8.37; Tumor uptake, average SUVmax (tumor lesions [3]; [6]): 7.37; Unspecific uptake in locations of wound healing after surgical intervention, average SUVmax [4]: 7.07; Background uptake in brain, average SUVmax [4, 6]: 0.32; Background uptake in liver, average SUVmax [4, 6]: 1.69; Background uptake in oral/pharyngeal mucosa, average SUVmax [4, 6]: 2.57; Uptake in all other organs compared with 18F-FDG ([4]; organs other than brain, liver, oral/pharyngeal mucosa, 6 patients): no significant difference |
| N#C[C@@H]1CC(F)(F)CN1C(=O)CNC(=O)c1ccnc2ccc(OCCCN3CCN(C(=O)CN4CCN(CC(=O)O)CCN(CC(=O)O)CCN(CC(=O)O)CC4)CC3)cc12 [^68Ga-FAPI-4, metal not drawn] | 1.8 mSv/100 MBq and 1.4–1.8 mSv/100 MBq | 1.66E−2 mSv/MBq | 1.35E−2 mSv/MBq | 1.64E−2 mSv/MBq and 1.64E−02 mSv/MBq | 3–4 mSv | 2.08E−02 | 1.12E−02 | 9.11E−03 | 8.88E−03 | 1.13E−02 | 2.02E−02 | 4.43E−02 | 1.46E−02 | 1.17E−02 | 9.89E−03 | 9.91E−03 | 2.16E−02 | 1.19E−02 | 1.13E−02 | 8.63E−03 | Dosimetry estimate (OLINDA), Small intestine [1]: 1.13E−02; Dosimetry estimate (OLINDA), Spleen [1]: 1.05E−02; Dosimetry estimate (OLINDA), Stomach wall [1]: 1.06E−02; Dosimetry estimate (OLINDA), Testes [1]: 1.01E−02; Dosimetry estimate (OLINDA), Thymus [1]: 1.01E−02; Dosimetry estimate (OLINDA), Thyroid [1]: 9.82E−03; Dosimetry estimate (OLINDA), Upper large intestine wall [1]: 1.11E−02; Dosimetry estimate (OLINDA), Urinary bladder wall [1]: 9.91E−02; Dosimetry estimate (OLINDA), Uterus [1]: 1.30E−02; Dosimetry estimate (OLINDA), Total body [1]: 1.09E−02; Decline of tumor uptake (washout) from 1 h to 3 h after injection (tumor lesions [2]): 25%; Uptake by tumors, average SUVmax (tumor lesions [3]): 10.07; Unspecific uptake in locations of wound healing after surgical intervention, average SUVmax [4]: 6.76 |
| O=C([O-])CN(CCN(CC(=O)[O-])Cc1cc(CCC(=O)NCCCCCC(=O)NCCCC[C@H](NC(=O)N[C@@H](CCC(=O)O)C(=O)O)C(=O)O)ccc1[O-])Cc1cc(CCC(=O)O)ccc1[O-].[68Ga+3].[OH3+] [^68Ga-PSMA-11] |  |  |  |  |  |  |  |  |  |  |  |  |  |  |  |  |  |  |  |  | Effective dose [5]: 1.6–2.4 mSv/100 MBq |
| O=C([O-])CN1CCN(CC(=O)[O-])CCN(CC(=O)NC[C@H]2CC[C@H](C(=O)N[C@@H](Cc3ccc4ccccc4c3)C(=O)NCCCC[C@H](NC(=O)N[C@@H](CCC(=O)O)C(=O)O)C(=O)O)CC2)CCN(CC(=O)[O-])CC1.[68Ga+3] [^68Ga-PSMA-617] |  |  |  |  |  |  |  |  |  |  |  |  |  |  |  |  |  |  |  |  | Effective dose ([5]; no reference of its own printed): 2.1 mSv/100 MBq |
